The values that follow come from PubChem BioAssay (NCI).

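Grown in 96-well plates, cells were treated for 48 hours with each compound at five concentrations. Insufficient inhibition: endpoint recorded as highest concentration tested. TGI is the concentration that stops growth completely.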

Among the test systems are A498 renal; A549 NSCLC; ACHN renal; HCT-15 colon; K-562 leukemia; M19-MEL melanoma; MOLT-4 leukemia; NCI-H522 lung; OVCAR-4 ovarian; SK-MEL-5 melanoma; SN12C renal; SR leukemia; TK-10 renal; U251 CNS; BT-549 breast; CCRF-CEM leukemia; HOP-92 NSCLC; HS 578T breast; MCF7 breast; PC-3 prostate.
Holding throughout (assay): growth of human tumour cells (NCI), 48 h

In the case of `CC(=O)n1cc(CC(C)O)c(=O)[nH]c1=O` (configuration not stated), the TGI in the assay on A498 renal, with A549 NSCLC, in the assay with ACHN renal, in the assay on HCT-15 colon, in the assay with K-562 leukemia and in the assay on M19-MEL melanoma was above 100 µM in each case. For the same molecule, the TGI was above 100 µM with MOLT-4 leukemia; above 100 µM with NCI-H522 lung; above 100 µM in the assay with OVCAR-4 ovarian; above 100 µM in the assay with SK-MEL-5 melanoma; 31.2 µM with SN12C renal; above 100 µM in the assay on SR leukemia. Further, the TGI in the assay with TK-10 renal and in the assay on U251 CNS was above 100 µM in each case.
Consider `O=C(O)/C(=C/c1ccccc1[N+](=O)[O-])c1cccs1`, for which the TGI in the assay with A498 renal, in the assay with A549 NSCLC, in the assay on ACHN renal, in the assay on HCT-15 colon, with K-562 leukemia and with M19-MEL melanoma was above 100 µM throughout. In addition, the TGI with MOLT-4 leukemia, with NCI-H522 lung, with OVCAR-4 ovarian, with SK-MEL-5 melanoma, with SN12C renal and in the assay with SR leukemia was above 100 µM each time. For the same molecule, the TGI with TK-10 renal and in the assay on U251 CNS was above 100 µM throughout.
With `c1csc(-c2ccc(-c3ccsc3)s2)c1`, the TGI with A498 renal, in the assay on A549 NSCLC, in the assay on ACHN renal, in the assay with BT-549 breast, in the assay on CCRF-CEM leukemia and in the assay on HCT-15 colon was above 100 µM each time. The TGI in the assay with HOP-92 NSCLC, in the assay on HS 578T breast, in the assay with K-562 leukemia, with MCF7 breast, with MOLT-4 leukemia and in the assay on NCI-H522 lung was above 100 µM each time. Also, the TGI with OVCAR-4 ovarian, with PC-3 prostate, in the assay with SK-MEL-5 melanoma, with SN12C renal, in the assay on SR leukemia and in the assay on TK-10 renal was above 100 µM each time. In the assay on U251 CNS, this molecule had a TGI above 100 µM.
As for `C=CCC1(O)C(=O)OC2C(O)COC21O` (configuration not stated), the TGI in the assay on A498 renal, in the assay with A549 NSCLC, in the assay on ACHN renal, in the assay with BT-549 breast, with CCRF-CEM leukemia and in the assay with HCT-15 colon was above 100 µM in each case. Moreover, the TGI in the assay on HOP-92 NSCLC, with HS 578T breast, in the assay with K-562 leukemia, in the assay with MCF7 breast, in the assay with MOLT-4 leukemia and in the assay with NCI-H522 lung was above 100 µM in each case. The TGI in the assay with OVCAR-4 ovarian, in the assay with PC-3 prostate, with SK-MEL-5 melanoma, in the assay on SN12C renal, in the assay on SR leukemia and with TK-10 renal was above 100 µM each time. In the assay on U251 CNS, the TGI was above 100 µM.
Regarding `CCOC(=O)c1ncn2c1[nH]c(=O)c1ccccc12`, the TGI in the assay with A549 NSCLC, with ACHN renal, in the assay on CCRF-CEM leukemia, in the assay with HCT-15 colon, in the assay on K-562 leukemia and in the assay on M19-MEL melanoma was above 100 µM in each case. For the same molecule, the TGI in the assay on MOLT-4 leukemia, in the assay with NCI-H522 lung, with OVCAR-4 ovarian, in the assay on SK-MEL-5 melanoma, in the assay with SN12C renal and in the assay on SR leukemia was above 100 µM throughout. The TGI with TK-10 renal and in the assay on U251 CNS was above 100 µM in each case.
As to `CC(C)(C)OC(=O)N(CCCCNC(=O)c1ccccc1)CCCNC(=O)c1ccccc1`, the TGI with A498 renal, with A549 NSCLC, with ACHN renal, in the assay on BT-549 breast, in the assay on CCRF-CEM leukemia and in the assay on HCT-15 colon was above 100 µM throughout. In addition, the TGI in the assay on HOP-92 NSCLC, in the assay on HS 578T breast, with K-562 leukemia, in the assay on MCF7 breast, in the assay with MOLT-4 leukemia and with NCI-H522 lung was above 100 µM throughout. In addition, the TGI in the assay with OVCAR-4 ovarian, in the assay on PC-3 prostate, in the assay on SK-MEL-5 melanoma, in the assay on SN12C renal, in the assay with SR leukemia and in the assay on TK-10 renal was above 100 µM in each case. This molecule also registered a TGI with U251 CNS above 100 µM.
For the molecule `O=[N+]([O-])c1ccc(OP(=O)(O)OCC2OC(CP(=O)(O)O)C(O)C2O)cc1` (configuration not stated), the TGI in the assay with A498 renal, in the assay on A549 NSCLC, in the assay with ACHN renal, in the assay on BT-549 breast, in the assay on CCRF-CEM leukemia and in the assay on HCT-15 colon was above 100 µM in each case. Moreover, the TGI with HOP-92 NSCLC, with HS 578T breast, with K-562 leukemia, in the assay with MCF7 breast, in the assay on MOLT-4 leukemia and in the assay with NCI-H522 lung was above 100 µM throughout. Further, the TGI in the assay on OVCAR-4 ovarian, in the assay on PC-3 prostate, with SK-MEL-5 melanoma, with SN12C renal, in the assay on SR leukemia and in the assay on TK-10 renal was above 100 µM each time. Also, the TGI with U251 CNS is above 100 µM.
On to `O=C(Nc1sccc1S(=O)(=O)c1ccc(Cl)cc1)c1ccc(Cl)cc1Cl`, for which the TGI with A498 renal, with A549 NSCLC, with ACHN renal, in the assay with BT-549 breast, with CCRF-CEM leukemia and in the assay with HCT-15 colon was above 100 µM throughout. Besides, the TGI in the assay with HOP-92 NSCLC, with HS 578T breast, in the assay on K-562 leukemia, with MCF7 breast, in the assay on MOLT-4 leukemia and in the assay on NCI-H522 lung was above 100 µM in each case. For the same molecule, the TGI in the assay with OVCAR-4 ovarian, in the assay with PC-3 prostate, with SK-MEL-5 melanoma, in the assay with SN12C renal, with SR leukemia and in the assay on TK-10 renal was above 100 µM each time. The molecule also had a TGI with U251 CNS above 100 µM.
As to `Nc1nc(Cl)cc(NCC2(CO)CC(c3ccccc3)C2)n1` (configuration not stated), the TGI in the assay on A498 renal, in the assay with A549 NSCLC, with ACHN renal, in the assay on BT-549 breast, in the assay on CCRF-CEM leukemia and in the assay with HCT-15 colon was above 100 µM each time. Moreover, the TGI in the assay with HOP-92 NSCLC was above 100 µM; in the assay on HS 578T breast it was 83.8 µM; in the assay on K-562 leukemia it was above 100 µM; in the assay with MCF7 breast it was above 100 µM; with MOLT-4 leukemia it was 93.9 µM; in the assay with NCI-H522 lung, above 100 µM. For the same molecule, the TGI with OVCAR-4 ovarian is above 100 µM; in the assay on PC-3 prostate it was above 100 µM; with SK-MEL-5 melanoma, 29.4 µM; in the assay with SN12C renal, above 100 µM; in the assay on SR leukemia, above 100 µM; in the assay on TK-10 renal it was above 100 µM. The TGI with U251 CNS was above 100 µM.
As for `N#CC12CC=C(c3ccccc3)N=C1NC(c1ccccc1)=CC2` (configuration not stated), the TGI with A498 renal is 97 µM; in the assay on A549 NSCLC, above 100 µM; in the assay on ACHN renal, above 100 µM; in the assay on BT-549 breast, above 100 µM; with CCRF-CEM leukemia, 77.7 µM; in the assay on HCT-15 colon, above 100 µM. Moreover, the TGI in the assay on HOP-92 NSCLC is 92.2 µM; in the assay with HS 578T breast it was above 100 µM; in the assay on K-562 leukemia, above 100 µM; in the assay on MCF7 breast, above 100 µM; in the assay with MOLT-4 leukemia, 55.1 µM; in the assay on NCI-H522 lung, above 100 µM. Besides, the TGI was above 100 µM in the assay with OVCAR-4 ovarian; above 100 µM in the assay on PC-3 prostate; 39.4 µM with SK-MEL-5 melanoma; above 100 µM with SN12C renal; 82.2 µM with SR leukemia; above 100 µM in the assay with TK-10 renal. Besides, the TGI in the assay with U251 CNS is above 100 µM.
Regarding `COC(=O)c1ccc(-n2c(C)nc(=O)c(-c3ccccc3)c2C)cc1`, the TGI with A498 renal, in the assay on A549 NSCLC, in the assay with ACHN renal, in the assay on BT-549 breast, with CCRF-CEM leukemia and in the assay on HCT-15 colon was above 100 µM each time. In addition, the TGI in the assay with HOP-92 NSCLC, with HS 578T breast, in the assay with K-562 leukemia, in the assay with MCF7 breast, in the assay on MOLT-4 leukemia and in the assay with NCI-H522 lung was above 100 µM throughout. The TGI with OVCAR-4 ovarian, in the assay on PC-3 prostate, in the assay with SK-MEL-5 melanoma, with SN12C renal, in the assay with SR leukemia and in the assay on TK-10 renal was above 100 µM each time. The molecule further registered a TGI with U251 CNS above 100 µM.
With `CCSC1=C(C#N)C2(CCCCC2)C2=C(CC(C)(C)CC2=O)N1`, the TGI was 64.6 µM with A498 renal; above 100 µM in the assay on A549 NSCLC; 74.2 µM in the assay on ACHN renal; 60.1 µM in the assay with BT-549 breast; above 100 µM with CCRF-CEM leukemia; above 100 µM in the assay on HCT-15 colon. In addition, the TGI in the assay on HOP-92 NSCLC is 43.1 µM; with HS 578T breast, above 100 µM; in the assay with K-562 leukemia, above 100 µM; in the assay with MCF7 breast, above 100 µM; in the assay on MOLT-4 leukemia, above 100 µM; in the assay with NCI-H522 lung it was above 100 µM. The TGI with OVCAR-4 ovarian was 73.2 µM; with PC-3 prostate it was above 100 µM; with SK-MEL-5 melanoma, above 100 µM; in the assay with SN12C renal, above 100 µM; in the assay with SR leukemia, above 100 µM; in the assay with TK-10 renal, above 100 µM. This molecule also displayed a TGI with U251 CNS above 100 µM.
As to `OC1=CN=C(C2CC2)Oc2ccccc21`, the TGI in the assay on A498 renal, in the assay with A549 NSCLC, with ACHN renal, in the assay on CCRF-CEM leukemia, in the assay with HCT-15 colon and in the assay on HOP-92 NSCLC was above 100 µM in each case. In addition, the TGI in the assay with K-562 leukemia, in the assay with M19-MEL melanoma, with MOLT-4 leukemia, with OVCAR-4 ovarian, in the assay on SK-MEL-5 melanoma and with SN12C renal was above 100 µM throughout. Also, the TGI with TK-10 renal and in the assay on U251 CNS was above 100 µM each time.
